Inconclusive results and toxic doses are left out. No stated cut-off is given here; in the data, active means T/C of 150% or more; inactive means T/C below 125%.
Test system: L1210 leukemia ip in BDF1 mice, survival T/C
Test: NCI In Vivo Anticancer Drug Screen. Data for tumor model L1210 Leukemia (intraperitoneal) in B6D2F1 (BDF1) mice
Conditions: endpoint: mean survival time, higher = longer survival
In short: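 Survival endpoint. Drug-treated group vs vehicle group, expressed as T divided by C. Tumor passaged by transplantation.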

[1] = dose: 100.0 mg/kg/injection, schedule: Q01DX009 (ip), vehicle: saline with Tween-80
[2] = dose: 100.0 mg/kg/injection, schedule: Q04DX003 (ip), vehicle: saline with Tween-80
[3] = dose: 200.0 mg/kg/injection, schedule: Q01DX009 (ip), vehicle: saline with Tween-80
[4] = dose: 200.0 mg/kg/injection, schedule: Q04DX003 (ip), vehicle: saline with Tween-80
[5] = dose: 100.0 mg/kg/injection, schedule: Q01DX001 (ip), vehicle: saline
[6] = dose: 200.0 mg/kg/injection, schedule: Q01DX001 (ip), vehicle: saline
[7] = dose: 100.0 mg/kg/injection, schedule: Q04DX003 (ip), vehicle: Klucel (hydroxypropylcellulose) (HPC)
[8] = dose: 200.0 mg/kg/injection, schedule: Q04DX003 (ip), vehicle: Klucel (hydroxypropylcellulose) (HPC)
[9] = dose: 400.0 mg/kg/injection, schedule: Q04DX003 (ip), vehicle: Klucel (hydroxypropylcellulose) (HPC)

Measured: T/C

CCOC(=O)NCC1(c2ccccc2)CCNCC1
inactive: dose: 20.0 mg/kg/injection, schedule: Q04DX003 (ip), vehicle: Klucel (hydroxypropylcellulose) (HPC) 102 % of control | dose: 40.0 mg/kg/injection, schedule: Q04DX003 (ip), vehicle: Klucel (hydroxypropylcellulose) (HPC) 102 % of control | dose: 80.0 mg/kg/injection, schedule: Q04DX003 (ip), vehicle: Klucel (hydroxypropylcellulose) (HPC) 102 % of control

C[n+]1c(O)c(C(=O)CCl)n2ccccc21
inactive: dose: 100.0 mg/kg/injection, schedule: Q01DX009 (ip), vehicle: saline 94 % of control | dose: 200.0 mg/kg/injection, schedule: Q01DX009 (ip), vehicle: saline 91 % of control | dose: 400.0 mg/kg/injection, schedule: Q01DX009 (ip), vehicle: saline 92 % of control

Nc1ccc(Cl)c(Cl)c1
inactive: dose: 50.0 mg/kg/injection, schedule: Q01DX001 (ip), vehicle: carboxymethylcellulose (CMC) 98 % of control | dose: 50.0 mg/kg/injection, schedule: Q01DX009 (ip), vehicle: alcohol 101 % of control | dose: 50.0 mg/kg/injection, schedule: Q01DX009 (ip), vehicle: saline with Tween-80 92 % of control | dose: 50.0 mg/kg/injection, schedule: Q04DX003 (ip), vehicle: saline with Tween-80 104 % of control | dose: 100.0 mg/kg/injection, schedule: Q01DX001 (ip), vehicle: carboxymethylcellulose (CMC) 93 % of control | dose: 100.0 mg/kg/injection, schedule: Q01DX009 (ip), vehicle: alcohol 109 % of control | [1] 94 % of control | dose: 100.0 mg/kg/injection, schedule: Q04DX003 (ip), vehicle: alcohol 114 % of control | [2] 104 % of control | dose: 200.0 mg/kg/injection, schedule: Q01DX001 (ip), vehicle: carboxymethylcellulose (CMC) 95 % of control | dose: 200.0 mg/kg/injection, schedule: Q01DX009 (ip), vehicle: alcohol 90 % of control | [3] 95 % of control | dose: 200.0 mg/kg/injection, schedule: Q04DX003 (ip), vehicle: alcohol 97 % of control | [4] 104 % of control

CN1C(C(=O)c2ccccc2)C1C(=O)c1ccccc1 (configuration not stated)
inactive: dose: 75.0 mg/kg/injection, schedule: Q04DX003 (ip), vehicle: carboxymethylcellulose (CMC) 112 % of control | dose: 150.0 mg/kg/injection, schedule: Q04DX003 (ip), vehicle: carboxymethylcellulose (CMC) 102 % of control | dose: 300.0 mg/kg/injection, schedule: Q04DX003 (ip), vehicle: carboxymethylcellulose (CMC) 102 % of control

O=C(O)/C=C/C(=O)NCc1ccco1
inactive: [1] 98 % of control | [3] 96 % of control | dose: 400.0 mg/kg/injection, schedule: Q01DX009 (ip), vehicle: saline with Tween-80 101 % of control

CC(=O)c1ccc(CC2CCC2)cc1
inactive: dose: 75.0 mg/kg/injection, schedule: Q01DX009 (ip), vehicle: Klucel (hydroxypropylcellulose) (HPC) 97 % of control | dose: 150.0 mg/kg/injection, schedule: Q01DX009 (ip), vehicle: Klucel (hydroxypropylcellulose) (HPC) 112 % of control | dose: 300.0 mg/kg/injection, schedule: Q01DX009 (ip), vehicle: Klucel (hydroxypropylcellulose) (HPC) 110 % of control

N#CCCN1CCC(=O)c2ccccc21
inactive: [5] 101 % of control | [6] 98 % of control | dose: 400.0 mg/kg/injection, schedule: Q01DX001 (ip), vehicle: saline 101 % of control

C1C2CC3C1C3/C2=N\N=C1/C2CC3C(C2)C13
inactive: dose: 75.0 mg/kg/injection, schedule: Q01DX001 (ip), vehicle: saline 101 % of control | dose: 150.0 mg/kg/injection, schedule: Q01DX001 (ip), vehicle: saline 89 % of control | dose: 300.0 mg/kg/injection, schedule: Q01DX001 (ip), vehicle: saline 98 % of control

O=[N+]([O-])CC(O)C(F)(F)C(F)(F)C(F)(F)F (configuration not stated)
inactive: [7] 105 % of control | [8] 100 % of control | [9] 100 % of control

CC(O)Cc1c[nH]c(=O)[nH]c1=O (configuration not stated)
inactive: dose: 100.0 mg/kg/injection, schedule: Q01DX009 (ip), vehicle: water 98 % of control | dose: 100.0 mg/kg/injection, schedule: Q04DX003 (ip), vehicle: water 94 % of control | dose: 200.0 mg/kg/injection, schedule: Q01DX009 (ip), vehicle: water 107 % of control | dose: 200.0 mg/kg/injection, schedule: Q04DX003 (ip), vehicle: water 98 % of control | dose: 400.0 mg/kg/injection, schedule: Q01DX009 (ip), vehicle: water 96 % of control | dose: 400.0 mg/kg/injection, schedule: Q04DX003 (ip), vehicle: water 93 % of control

CC(=O)C12CC3CC1C2C3
inactive: dose: 75.0 mg/kg/injection, schedule: Q04DX003 (ip), vehicle: saline 106 % of control | dose: 150.0 mg/kg/injection, schedule: Q04DX003 (ip), vehicle: saline 102 % of control | dose: 300.0 mg/kg/injection, schedule: Q04DX003 (ip), vehicle: saline 101 % of control

CCC(c1ccc2cc(OC)ccc2c1)C(C)(C)C(=O)F (configuration not stated)
inactive: dose: 25.0 mg/kg/injection, schedule: Q01DX009 (ip), vehicle: saline 94 % of control | dose: 31.3 mg/kg/injection, schedule: Q01DX Z (sc), vehicle: steriod suspending solution 107 % of control | dose: 50.0 mg/kg/injection, schedule: Q01DX001 (ip), vehicle: steriod suspending solution 98 % of control | dose: 50.0 mg/kg/injection, schedule: Q01DX009 (ip), vehicle: saline 100 % of control | dose: 62.5 mg/kg/injection, schedule: Q01DX Z (sc), vehicle: steriod suspending solution 110 % of control | dose: 100.0 mg/kg/injection, schedule: Q01DX001 (ip), vehicle: steriod suspending solution 96 % of control | dose: 100.0 mg/kg/injection, schedule: Q04DX003 (ip), vehicle: acetone 94 % of control | dose: 125.0 mg/kg/injection, schedule: Q01DX Z (sc), vehicle: steriod suspending solution 108 % of control | dose: 250.0 mg/kg/injection, schedule: Q01DX Z (sc), vehicle: steriod suspending solution 108 % of control

CC(=O)Oc1cc(-c2ccc3c(c2)C2(C)c4cc(OC(C)=O)c5ccccc5c4OC2(C)N3C)c(OC(C)=O)c2ccccc12 (configuration not stated)
inactive: dose: 100.0 mg/kg/injection, schedule: Q01DX001 (ip), vehicle: other 92 % of control | dose: 200.0 mg/kg/injection, schedule: Q01DX001 (ip), vehicle: other 88 % of control | dose: 400.0 mg/kg/injection, schedule: Q01DX001 (ip), vehicle: other 92 % of control

O=C1c2cc(Br)ccc2-c2ccc(Br)cc21
inactive: dose: 50.0 mg/kg/injection, schedule: Q01DX001 (ip), vehicle: saline 90 % of control | [5] 100 % of control | [6] 90 % of control

CCCCCCCCC(C)NCCOC(=O)c1ccc([N+](=O)[O-])cc1 (configuration not stated)
inactive: dose: 75.0 mg/kg/injection, schedule: Q01DX001 (ip), vehicle: other 89 % of control | dose: 150.0 mg/kg/injection, schedule: Q01DX001 (ip), vehicle: other 89 % of control

O=C(c1ccc(Cl)cc1)C(C(c1ccc([N+](=O)[O-])cc1)N1CCCCC1)N1CCCCC1 (configuration not stated)
inactive: dose: 12.5 mg/kg/injection, schedule: Q01DX001 (ip), vehicle: Klucel (hydroxypropylcellulose) (HPC) 98 % of control | dose: 12.5 mg/kg/injection, schedule: Q01DX009 (ip), vehicle: Klucel (hydroxypropylcellulose) (HPC) 102 % of control | dose: 25.0 mg/kg/injection, schedule: Q01DX001 (ip), vehicle: Klucel (hydroxypropylcellulose) (HPC) 104 % of control | dose: 25.0 mg/kg/injection, schedule: Q01DX009 (ip), vehicle: Klucel (hydroxypropylcellulose) (HPC) 98 % of control | dose: 50.0 mg/kg/injection, schedule: Q01DX001 (ip), vehicle: Klucel (hydroxypropylcellulose) (HPC) 102 % of control | dose: 50.0 mg/kg/injection, schedule: Q01DX009 (ip), vehicle: Klucel (hydroxypropylcellulose) (HPC) 101 % of control | dose: 400.0 mg/kg/injection, schedule: Q01DX001 (ip), vehicle: Klucel (hydroxypropylcellulose) (HPC) 92 % of control

Nc1cccc(C(O)c2ccccc2)c1 (configuration not stated)
inactive: [7] 90 % of control | [8] 92 % of control | [9] 95 % of control

CC1(C)C(=O)C=C(N2CCCCC2)c2ccccc21
inactive: [2] 101 % of control | [4] 98 % of control | dose: 400.0 mg/kg/injection, schedule: Q04DX003 (ip), vehicle: saline with Tween-80 97 % of control
